# Source: US8143212B2 (Vicuron Pharmaceuticals Inc., priority 2002, dated 2012)
# Values joined by “and” are separate entries in the source; they are usually repeats but may differ in a detail not shown here. Identical values can stand only once. Like-named read-outs stand apart in the source and are kept apart here.
# Legend:
# Staph. aureus = assay: ED50 against Staph. aureus murine septicaemias (Table 2); type: in vivo
# S aureus = assay: MIC, microbiological activity (Tables 2, 3); type: cell-based
# S epidermidis = assay: MIC, microbiological activity (Table 3); type: cell-based; conditions: L 147 S epidermidis
# S pyogenes = assay: MIC, microbiological activity (Table 3); type: cell-based; conditions: L 49 S pyogenes C203
# S pneumoniae = assay: MIC, microbiological activity (Table 3); type: cell-based; conditions: L 44 S pneumoniae UC41
# S haemolyticus = assay: MIC, microbiological activity (Table 3); type: cell-based; conditions: L 602 S haemolyticus clin. isolate
# E faecalis = assay: MIC, microbiological activity (Table 3); type: cell-based
# E. faecium Van-A = assay: MIC, microbiological activity (Table 3); type: cell-based; conditions: L 1666 E. faecium Van-A
# B subtilis = assay: MIC, microbiological activity (Table 3); type: cell-based; conditions: L 102 B subtilis ATCC
# E coli = assay: MIC, microbiological activity (Table 3); type: cell-based; conditions: G 16440 E coli iperperm
# P vulgaris = assay: MIC, microbiological activity (Table 3); type: cell-based; conditions: L 79 P vulgaris
# P aeruginosas = assay: MIC, microbiological activity (Table 3); type: cell-based; conditions: L 4 P aeruginosas ATCC10145
# C albicans = assay: MIC, microbiological activity (Table 3); type: cell-based; conditions: L 145 C albicans SKF2270
# [1] = system: catheter-related blood stream infection (CR-BSI) due to gram-positive bacterial pathogens; assay: CR-BSI trial: efficacy (overall, clinical, microbiological response); type: in vivo, human; conditions: microbiological ITT population at TOC; dalbavancin 1000 mg Day 1 + 500 mg Day 8 IV; vancomycin 1000 mg IV every 12 hours
# Protocol: Patients with CR-BSI due to suspected or known Gram-positive pathogen(s) who met the inclusion/exclusion criteria were randomized to one of two treatment arms in this open-label, comparative, multi-center study. Dalbavancin was administered once weekly in weekly dalbavancin and comparator (vancomycin) was administered daily in vancomycin. Catheter removal was required for patients with Staphylococcus aureus infection; catheter management was left to the Investigator's discretion for patients with coagulase-negative staphylococci (CoNS) infection. Efficacy was clinically based on the improvement or resolution of clinical signs and symptoms of CR-BSI such that no additional antibacterials were warranted, and microbiologically on the eradication or presence of the baseline or other pathogens.
# The treatment lasted for 14 days for patients with S. aureus infection, and 7 to 14 days for all other pathogens. […] Vancomycin was administered intravenously with a 1000 mg dose every 12 hours (or dose-adjusted based on drug levels).
# Efficacy was evaluated based on clinical and microbiological responses.
# gram positive bacteria [2] = assay: MIC by broth microdilution (NCCLS), with or without 30% bovine serum (Table 42); type: cell-based
# Protocol: (§1) Before dissolution, each sample was analyzed by HPLC and quantified.
# (§2) The microorganisms used were reference strains obtained from the American Type Culture Collection (ATCC) (Rockville, Md.), SmithKline and French Laboratories (SKF), and the Upjohn Company (UC) (Kalamazoo, Mich.).
# (§3) MICs were determined by the broth microdilution methodology following the standard NCCLS procedure (NCCLS Document M7-A6, Vol. 23, No. 2, “Methods for dilution antimicrobial susceptibility tests for bacteria that grow aerobically.” Approved Guideline. January 2003, which can be herein incorporated by reference in its entirety), with or without 30% adult bovine serum (BS) (PAA Laboratories GMBH, Haidmannweg Pasching Austria), using bacterial innocula at approximately 5×10^5 CFU/ml. The media employed included cation-adjusted Müller Hinton broth (Difco Laboratories, Detroit, Mich.) that was used that was adjusted with CaCl2 and MgCl2 to a final concentration of 20 mg/L and 10 mg/L, respectively. Tests were read following 20-24 hours of incubation at 35° C.
# gram-negative bacteria = assay: MIC by broth microdilution (NCCLS) (Table 42); type: cell-based
# Protocol: as §1, §2, §3
# [3] = system: panel of gram-positive bacteria; assay: MIC by broth microdilution (NCCLS) of IsoB0 and reference compounds (Table 44); type: cell-based
# Protocol: Müller Hinton broth (Difco Laboratories, Detroit, Mich., USA) adjusted with CaCl2 and MgCl2 to a final concentrations of 20 mg/L and 10 mg/L respectively.
# The microorganisms used are reference standard strains from the American Type Culture Collection (ATCC, Rockville, USA), Smith Kline and French Laboratories (SKF) and the Upjohn Company (UC, Kalamazoo, Mich., USA).
# (§4) MICs were determined by the broth microdilution methodology following the standard NCCLS procedure, with or without 30% bovine serum, using bacterial inocula of approximately 5×10^5 CFU/mL. Tests were read after 20-24 h incubation at 35° C.
# [4] = system: Candida albicans SKF 2270; assay: MIC by broth microdilution (NCCLS) (Tables 42, 44); type: cell-based
# [5] = system: Escherichia coli, Proteus vulgaris, Pseudomonas aeruginosas; assay: MIC by broth microdilution (NCCLS) of IsoB0 and reference compounds (Table 44), non-gram-positive bacterial strains; type: cell-based
# Protocol: as §4
# gram positive bacteria [6] = conditions: NCCLS M100 S-12, cited from earlier work
# CR-BSI trial: safety = conditions: in vivo
# Protocol: Safety was evaluated by the collection and analysis of data on adverse events (AEs), clinical laboratory tests, physical examinations, vital signs, and ECGs.
# [7] = system: N,N′-diacetyl-Lys-D-Ala-D-Ala; assay: Isothermal titration calorimetry of tri-peptide binding, with and without HSA (Table 39); conditions: for Kd: read-out: Kdiss
# Protocol: Antibiotics and peptides were dissolved in aqueous buffer (20 mM Na phosphate, 150 mM NaCl, pH 7.4) containing HSA, with gentle stirring immediately before each experiment. Peptide concentrations were determined by weight. […] HSA concentrations were determined by UV absorbance (HSA, ε280=37,700; A280^1%=5.44). Spectra were recorded at room temperature in 1 cm pathlength quartz cuvettes using Shimadzu UV-160A or UV-1601 spectrophotometers, with samples diluted quantitatively with buffer if necessary to give absorbance in the 0.1-1 A range.
# Isothermal titration calorimetry was performed using a Microcal VP-ITC instrument at 25° C. and 37° C. using standard operating procedures. […] Samples were degassed gently prior to loading to prevent bubble formation in the calorimeter cell. […] Control experiments involved injection of ligand into buffer under identical conditions to determine heats of peptide dilution, and these values were used for correction of raw binding data prior to analysis.
# [8] = Enterococcus faecalis ATCC 7080
# [9] = Enterococcus faecalis, ATCC29212
# [10] = Staphylococcus aureus, ATCC19636
# [11] = Staphylococcus aureus, ATCC29213
# [12] = Staphylococcus epidermidis, ATCC12228
smiles,measurement,setting,value
CN[C@H]1C(=O)N[C@@H]2Cc3ccc(cc3)Oc3cc4cc(c3O)Oc3ccc(cc3Cl)[C@@H](O)[C@@H]3NC(=O)[C@H](NC(=O)[C@@H]4NC(=O)[C@@H](NC2=O)c2cc(cc(O)c2Cl)Oc2cc1ccc2O)c1ccc(O)c(c1)-c1c(O[C@H]2O[C@H](CO)[C@@H](O)[C@H](O)[C@@H]2O)cc(O)cc1[C@@H](C(=O)NCCCN(C)C)NC3=O [MAG],ED50,"Staph. aureus; MRSA Staph. aureus 3817, treatment once within 10 min from infection by sc route",1.6 mg/kg
same,ED50,"Staph. aureus; MSSA Staph. aureus Smith 819, treatment once within 10 min from infection by sc route",0.3 mg/kg
same,MIC,S aureus; 3797 S aureus clin. Isolate GISA,0.5-0.5 μg/ml
same,MIC,S aureus; 3817 S aureus clin. Isolate,0.5 µg/mL
same,MIC,S aureus; L 613 S aureus clin. isolate,1 µg/mL and 0.5 µg/mL
same,MIC,S aureus; L 819 S aureus Smith,0.5 µg/mL and 0.25 µg/mL
same,MIC,S aureus; L 819 S aureus Smith 50% serum,1-1-1 μg/ml
same,MIC,S aureus; MRSA Staph. aureus 3817,0.5 µg/mL
same,MIC,S aureus; MSSA Staph. aureus Smith 819,0.5 µg/mL
same,MIC,S epidermidis,0.25 µg/mL and 0.13 µg/mL
same,MIC,S pyogenes,0.5 µg/mL and 0.25 µg/mL
same,MIC,S pneumoniae,1 µg/mL and 0.5 µg/mL
same,MIC,S haemolyticus,>32-32 μg/ml
same,MIC,E faecalis; L 149 E faecalis,0.25 µg/mL and 0.5 µg/mL
same,MIC,E faecalis; L 562 E faecalis clin. isolate,32->32->32 μg/ml
same,MIC,E. faecium Van-A,>32->32->32 μg/ml
same,MIC,B subtilis,0.13-0.13 μg/ml
same,MIC,E coli,8 µg/mL and 16 µg/mL
same,MIC,P vulgaris,>32->32->32 μg/ml
same,MIC,P aeruginosas,>32->32->32 μg/ml
same,MIC,C albicans,>32->32->32 μg/ml
CN[C@H](CC(C)C)C(=O)N[C@H]1C(=O)N[C@@H](CC(N)=O)C(=O)N[C@H]2C(=O)N[C@H]3C(=O)N[C@H](C(=O)N[C@H](C(=O)O)c4cc(O)cc(O)c4-c4cc3ccc4O)[C@H](O)c3ccc(c(Cl)c3)Oc3cc2cc(c3O[C@@H]2O[C@H](CO)[C@@H](O)[C@H](O)[C@H]2O[C@H]2C[C@](C)(N)[C@H](O)[C@H](C)O2)Oc2ccc(cc2Cl)[C@H]1O [Vancomycin],ED50,"Staph. aureus; Staphylococcus aureus, MRSA, sc, 10 min",1 mg/kg
same,ED50,"Staph. aureus; Staphylococcus aureus, MSSA, sc, 10 min",1.7 mg/kg
same,MIC,"S aureus; Staphylococcus aureus, MRSA Staph. aureus 3817, read-out: MIC",0.5 µg/mL
same,MIC,"S aureus; Staphylococcus aureus, MSSA Staph. aureus Smith 819, read-out: MIC",0.5 µg/mL
same,overall response success rate,[1],50.0%
same,MIC,gram positive bacteria [2],1 µg/mL
same,MIC,gram positive bacteria [2]; Bacillus subtilis ATCC 6633,≤ 0.125 µg/mL
same,MIC,gram positive bacteria [2]; [8],1 µg/mL
same,MIC,gram positive bacteria [2]; [9],2 µg/mL
same,MIC,gram positive bacteria [2]; [10],1 µg/mL
same,MIC,gram positive bacteria [2]; [11],2 µg/mL
same,MIC,gram positive bacteria [2]; [12],2 µg/mL
same,MIC,"gram positive bacteria [2]; Streptococcus pneumoniae, UC41",0.5 µg/mL
same,MIC,gram-negative bacteria,> 128 µg/mL
same,MIC,gram-negative bacteria; Escherichia coli,> 128 µg/mL
same,MIC,"gram-negative bacteria; Escherichia coli, ATCC25922",> 128 µg/mL
same,MIC,gram-negative bacteria; Proteus vulgaris ATCC 881,> 128 µg/mL
same,MIC,[3]; Bacillus subtilis ATCC 6633,≤ 0.125 µg/mL
same,MIC,[3]; [8],1 µg/mL
same,MIC,[3]; [9],2 µg/mL
same,MIC,[3]; [10],1 µg/mL
same,MIC,[3]; [11],2 µg/mL
same,MIC,[3]; [12],2 µg/mL
same,MIC,"[3]; Streptococcus pneumoniae, UC41",0.5 µg/mL
same,MIC,[3]; Streptococcus pyogenes,1 µg/mL
same,MIC,[4]; Candida albicans SKF2270 (Table 44),>128 µg/mL
same,MIC,"[4]; Candida albicans, SKF2270",> 128 µg/mL
same,MIC,[5],> 128 µg/mL
same,MIC,[5]; Escherichia coli,> 128 µg/mL
same,MIC,"[5]; Escherichia coli, ATCC25922",> 128 µg/mL
same,MIC,[5]; Proteus vulgaris ATCC 881,> 128 µg/mL
same,Quality control range of MICs for reference strains,gram positive bacteria [6]; E. faecalis ATCC29212 ref. strain,^2VA 1-4 mg/L
same,Quality control range of MICs for reference strains,gram positive bacteria [6]; S. aureus ATCC 29213 ref. strain,^1VA 0.5-2 mg/L
same,patients with AEs that led to discontinuation of study drug,"CR-BSI trial: safety; human, intravenous",8.8%
same,SAE considered to be related to study drug,CR-BSI trial: safety,one SAE
same,Kass,"[7]; T 10 ° C., [HSA] 0 μM",690000 M⁻¹
same,Kass,"[7]; T 25 ° C., [HSA] 0 μM",340000 M⁻¹ and 360000 M⁻¹
same,Kass,"[7]; T 25 ° C., with HSA 513 μM",290000 M⁻¹
same,binding to dipeptide (D-Ala-D-Ala) or to Lys-D-Ala-D-Lactate,[7]; absence of serum proteins,no evidence of binding
same,Kd,"[7]; T 10 ° C., [HSA] 0 μM",1450 nM
same,Kd,"[7]; T 25 ° C., [HSA] 0 μM",2940 nM and 2780 nM
same,Kd,"[7]; T 25 ° C., with HSA 513 μM",3450 nM
